Results on two compounds are retold here after ChEMBL document CHEMBL1155684, “Preparation, stereochemistry, and cytotoxic activity of the melampolides from Mikania minima” (J Nat Prod, 2000).

For orientation: IC50 means the concentration that gives 50% inhibition. A higher IC50 goes with lower potency.

Assay type in all cases: functional, cell-based
For one experiment, the system named is A549. In words: Cytotoxicity against human A549 cells.
A further experiment concerns P388. The experiment in a line: Cytotoxicity against mouse P388 cells.
The subject of a further experiment is HT-29. The experiment in a line: Cytotoxicity against human HT29 cells.

Turning to `C=C1C(=O)O[C@@H]2/C=C(\COC(C)=O)CC/C=C(/CO)C[C@H](OC(C)=O)[C@@H]12`, the IC50 with A549 is 5500 nM; in the experiment with P388, 2700 nM.

Take `C=C1C(=O)O[C@@H]2/C=C(\COC(C)=O)CC/C=C(/C=O)C[C@H](OC(C)=O)[C@@H]12`: the IC50 was determined as 2800 nM with A549, 2800 nM with HT-29 and 1400 nM with P388.
